In experiment [1] the test system is Arabidopsis thaliana. Briefly: Root elongation in plates (in planta root elongation assay). In kind it is in vivo. The conditions noted are these: 168 h, A. thaliana on MS medium plates, 7 days, read-out: Root-growth inhibition %. On the procedure:
6-well plates were prepared in a biological hood with sterile half Murashige and Skoog mineral medium (MS; Duchefa, Haarlem, Netherlands) containing 1% sucrose (w/v), pH 5.8. Tested molecules were dissolved in 50 mM DMSO and diluted to various concentrations 1,000-fold greater than the final desired concentration the MS medium maintaining a final concentration of 0.1% DMSO. MS medium with 0.1% DMSO was used as a negative control. After 7 days the plates were scanned and the root length was calculated using the imageJ software. […] Further sterilization was done by washing the seeds with 50% hypochlorite and 0.2% Triton x-100 for 10 minutes followed by five cycles of washing with sterile water. Six seeds were placed in each well, and the plates were covered and sealed with parafilm. Plates were placed vertically at 4° C. for two days and then transferred to a growth chamber for seven days (22-24° C.) at day/light cycles of 16/8 hours. Following the in vitro evaluation, selected molecules were tested for their ability to inhibit A. thaliana root elongation on agar plates. Seeds were plated on medium containing the molecules dissolved in the indicated concentrations and root length was measured after 6 or 7 days when the root in the non-treated plate reached the end of the well.

Experiment [2] has as its target T1, OASS-SAT complex (AtOASS with SAT-derived peptide) (Arabidopsis thaliana, UniProt P47998).
T1 construct: GST (N, cleaved yes); made in house; host or cells: E. coli Rosetta (DE3)
Briefly: Fluorescence polarization (FP) competition with FITC-labeled SAT-derived peptide bound to OASS. The conditions noted are these: competition with FITC-SAT peptide 200 nM, OASS 2.2 μM; for IC50: single site inhibition model. Format: binding. On the procedure:
Molecules were also tested for their ability to compete with the OASS binding to the SAT-derived peptide via a fluorescence polarization (FP) competition assay wherein the N-terminus labeled peptide was incubated with the AtOASS (see Examples section below). High FP values correspond to the peptide-bound state (low molecule concentrations) and low FP values correspond to the peptide-free state (low FP values). To extract the IC50, the FP data were fitted to a single site inhibition model in PRISM by GraphPad Software. The corresponding IC50 values were extracted, whereas low IC50 values correspond to molecule that better competes with the peptide binding to AtOASS. Fluorescence polarization (FP) measurements were made on samples arrayed in 96-well plates by using BioTek H1 Synergy instrument equipped with FP module. […] The peptide in a concentration of 200 nM was incubated with OASS at a concentration of 2.2 μM in each well. Variable concentrations of each molecule starting from 100 μM down to 0.048 μM were added to evaluate the ability of each molecule to compete off the FITC labeled peptide bound to OASS. Fluorescence experiments were executed with an Em/Exc wavelengths of 480/520 nm. All measurements were done in triplicate. Experimental polarization data from simple and competitive binding experiments were fitted using GraphPad Prism, with error bars representing SD. Molecules were also tested for their ability to compete with the OASS binding to the SAT-derived peptide via a fluorescence polarization (FP) competition assay. The N-terminus labeled peptide was incubated with the AtOASS in each of the wells in a 96-well plate. Various concentrations of the molecules were added and the FP values were recorded. High FP values correspond to the peptide-bound state (low molecule concentrations) and low FP values correspond to the peptide-free state (low FP values). To extract the IC50, the FP data were fitted to a single site inhibition model in graphpad prism. The corresponding IC50 values were extracted. Low IC50 values correspond to molecule that better competes with the peptide binding to AtOASS.

T1 sequence (P47998 whole entry, one chain of several): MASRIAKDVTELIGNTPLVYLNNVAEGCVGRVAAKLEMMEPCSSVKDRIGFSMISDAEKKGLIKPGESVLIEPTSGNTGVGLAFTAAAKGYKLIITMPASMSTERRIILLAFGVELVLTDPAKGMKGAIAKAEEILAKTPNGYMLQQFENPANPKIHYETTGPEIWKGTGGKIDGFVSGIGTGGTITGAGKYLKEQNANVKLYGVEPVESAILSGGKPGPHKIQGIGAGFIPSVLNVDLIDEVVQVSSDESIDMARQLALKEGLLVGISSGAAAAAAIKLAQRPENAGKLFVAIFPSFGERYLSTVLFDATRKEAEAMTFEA

A word on the inhibition: it is the percentage by which the read-out fell short of the control. Broadly, the IC50 is the midpoint of a concentration-inhibition curve. As for `Cc1cn(-c2ccccc2)nc1NS(=O)(=O)c1cc(C(=O)O)cc2c1CCC2` [PJL-2], in experiment [1], the inhibition at 50 µM was 70%. In addition, in experiment [2], the FP % inhibition was 11% and the IC50 came to 236 µM.
On the same counts, the results for `O=C(O)c1cc(F)ccc1NS(=O)(=O)c1cnn(-c2ccccc2F)c1` [PJL-5] are 56%, 16% and 148 µM.
On the same counts, the results for `COc1ccc(NS(=O)(=O)c2cc(C(=O)O)cc3c2CCC3)cc1Cl` [PJL-21] are 0%, 14% and 149 µM.
On the same counts, the results for `Cc1cc2cc(NS(=O)(=O)c3cc(C(=O)O)cc4c3CCC4)ccc2[nH]1` [PJL-22] are 0%, 13% and 206 µM.
For `O=C(O)c1cc(NS(=S)(=S)c2cnc(-c3ccc(F)cc3)s2)c(F)cc1F` [PJL-27], the inhibition at 50 µM in experiment [1] was 25%. In experiment [2], the FP % inhibition came to 11% and the IC50 amounted to 188 µM.
On the same counts, the results for `CC(C)(C)NC(=O)c1cccc(NC(=O)c2ccccc2-c2ccccc2C(=O)O)c1` [PJL-59] are 6%, 19% and 58 µM.
Regarding `O=C(O)c1cc2c(c(S(=O)(=O)Nc3cccc(C(=O)Nc4ccccn4)c3)c1)CCC2` [PJL-70], the inhibition at 50 µM in experiment [1] came out at 0%. Moreover, the FP % inhibition in experiment [2] was determined as 15%.
For `CN(C)c1ncn(-c2cccc(NS(=O)(=O)c3cc(C(=O)O)cc4c3CCC4)c2)n1` [PJL-74], the inhibition at 50 µM in experiment [1] was found to be 9%. Besides, in experiment [2], the FP % inhibition turned out to be 26% and the IC50 was determined as 22 µM.
On the same counts, the results for `O=C(O)c1ccc(O)cc1NS(=O)(=O)c1cnc(-c2ccccc2)o1` [PJL-82] are 0%, 11% and 150 µM.
Taken in the same sequence, the figures for `COc1ccccc1-n1cc(S(=O)(=O)Nc2ccc(F)cc2C(=O)O)cn1` [PJL-85] were 0%, 15% and 111 µM.
On the same counts, the results for `Cc1ccnc(-n2cc(S(=O)(=O)Nc3ccc(F)cc3C(=O)O)cn2)c1` [PJL-86] are 0%, 36% and 20 µM.
Regarding `CCn1nnc(-c2ccc(O)c(NC(=O)Cc3ccccc3C(=O)O)c2)n1` [PJL-88], in experiment [1], the inhibition at 50 µM amounted to 0%. Also, in experiment [2], the FP % inhibition was 10% and the IC50 amounted to 80 µM.
With `O=C(Cc1ccccc1C(=O)O)Nc1cc(C(=O)Nc2cccnc2)ccc1F` [PJL-91], in experiment [2], the FP % inhibition turned out to be 13% and the IC50 was determined as 55 µM.
On to `CCc1nnc(-c2ccc(O)c(NC(=O)Cc3ccccc3C(=O)O)c2)o1` [PJL-92], for which the inhibition at 50 µM in experiment [1] was determined as 0%. Further, in experiment [2], the FP % inhibition was 13% and the concentration for half-maximal inhibition (IC50) was 122 µM.
As to `CC(C)c1n[nH]c(-c2ccc(NC(=O)Cc3ccccc3C(=O)O)cc2)n1` [PJL-95], in experiment [1], the inhibition at 50 µM came out at 10%. Further, in experiment [2], the FP % inhibition came out at 27% and the 50% inhibitory concentration (IC50) was found to be 22 µM.
Taken in the same sequence, the figures for `CC(C)c1n[nH]c(-c2cccc(NC(=O)Cc3ccccc3C(=O)O)c2)n1` [PJL-96] were 2%, 22% and 43 µM.
Taken in the same sequence, the figures for `CC(C)Cc1ccc(-c2csc(NC(=O)c3ccccc3-c3ccccc3C(=O)O)n2)cc1` [PJL-108] were 17%, 47% and 4.7 µM.
On to `Nc1cc(F)ccc1-c1csc(NC(=O)c2ccccc2-c2ccccc2C(=O)O)n1` [PJL-111], for which the inhibition at 50 µM in experiment [1] came out at 66%. The FP % inhibition in experiment [2] stood at 45%.
For `O=C(O)c1ccccc1-c1cccnc1C(=O)Nc1nc(-c2ccc(Cl)cc2Cl)cs1` [PJL-115], in experiment [1], the inhibition at 50 µM came to 96%. For the same compound, in experiment [2], the FP % inhibition worked out at 36% and the IC50 was 12 µM.
Taken in the same sequence, the figures for `O=C(O)c1cc(F)ccc1-c1ccccc1C(=O)Nc1nc(-c2ccc(Cl)cc2Cl)cs1` [PJL-119] were 100%, 52% and 8.56 µM.
Taken in the same sequence, the figures for `O=C(O)c1ccccc1-c1ccccc1C(=O)Nc1cc(-c2ccc(Cl)cc2Cl)c[nH]c1=O` [PJL-120] were 88%, 14% and 115 µM.
On the same counts, the results for `COc1ccc(C(=O)O)c(NS(=O)(=O)c2cnn(-c3ccc(F)cc3)c2)c1` [PJL-121] are 72%, 4.6% and 322 µM.
As to `CCc1ccc(C(=O)O)c(NS(=O)(=O)c2cnc(-c3ccc(F)cc3)s2)c1` [PJL-122], the FP % inhibition in experiment [2] is reported as 25%.
For `COc1cc(NS(=O)(=O)c2cnc(-c3ccc(F)cc3)s2)c(C(=O)O)cc1F` [PJL-123], the FP % inhibition in experiment [2] was found to be 16%.
As for `COc1ccc(-c2csc(NC(=O)c3ccc(C)cc3-c3ccccc3C(=O)O)n2)cc1` [PJL-125], in experiment [2], the FP % inhibition was determined as 56% and the IC50 was found to be 3.4 µM.
On the same counts, the results for `COc1ccc(-c2csc(NC(=O)c3cccc(C)c3-c3ccccc3C(=O)O)n2)cc1` [PJL-128] are 41% and 18.5 µM.
On the same counts, the results for `CC(=O)Nc1ccc(C(=O)Nc2nc(-c3ccc(Cl)cc3Cl)cs2)c(-c2ccccc2C(=O)O)c1` [PJL-129] are 43% and 11 µM.
As to `O=C(O)c1ccccc1-c1cc(O)ccc1C(=O)Nc1nc(-c2ccc(Cl)cc2Cl)cs1` [PJL-130], the inhibition at 50 µM in experiment [1] was determined as 93%. In addition, in experiment [2], the FP % inhibition was 52% and the IC50 worked out at 3.4 µM.
As for `O=C(O)c1ccccc1-c1cc(CO)ccc1C(=O)Nc1nc(-c2ccc(Cl)cc2Cl)cs1` [PJL-131], in experiment [2], the FP % inhibition came to 42% and the IC50 was 9.3 µM.
`O=C(O)c1ccccc1-c1ccc(O)cc1C(=O)Nc1nc(-c2ccc(Cl)cc2Cl)cs1` [PJL-132]: in experiment [2], the FP % inhibition turned out to be 51% and the IC50 is 4.5 µM.
On the same counts, the results for `COc1ccc(C(=O)O)c(-c2cc(N)ccc2C(=O)Nc2nc(-c3ccc(Cl)cc3Cl)cs2)c1` [PJL-133] are 48% and 7.6 µM.
Take `O=C(O)c1ccc(Cl)c(S(=O)(=O)Nc2cccc(C(=O)Nc3cccc(C(F)(F)F)c3)c2)c1` [PJS-227]: in experiment [1], the inhibition at 50 µM is 39%. Moreover, in experiment [2], the FP % inhibition came to 18% and the IC50 worked out at 54.2 µM.

The values above are taken from patent US20250008959A1, “HERBICIDES AND USE THEREOF” (Projini Agchem LTD, priority 2021, published 2025).
